In brackets after ≈: the same amount, converted by molar mass. Structures can show the parent of a compound that is named as a salt.
How the values were obtained:
[1] = tested on: K. pneumoniae DT; test: MIC, K. pneumoniae DT; format: cell-based; conditions: unit assumed
[2] = tested on: E. coli 0-111; test: MIC, E. coli 0-111; format: cell-based; conditions: unit assumed
[3] = tested on: P. vulgaris Eb. 58; test: MIC, P. vulgaris Eb. 58; format: cell-based; conditions: unit assumed
[4] = tested on: E. coli NIHJ JC-2; test: MIC, E. coli NIHJ JC-2; format: cell-based; conditions: unit assumed
[5] = tested on: S. aureus 1840; test: MIC, S. aureus 1840; format: cell-based; conditions: unit assumed
[6] = tested on: S. aureus 209P; test: MIC, S. aureus 209P; format: cell-based; conditions: unit assumed
[7] = in vivo, po; for Blood-level in rat, 0.5 hours: 30 min; for Blood-level in rat, 1 hour: 60 min; for Blood-level in rat, 2 hours: 120 min; for Hydrolysis of 4-position ester after absorption in blood: rat

Blood-level in rat, 0.5 hours ([7]; 100 mg/kg)	Blood-level in rat, 1 hour ([7]; 100 mg/kg)	Blood-level in rat, 2 hours ([7]; 100 mg/kg)	Blood-level in rat, 4 hours ([7]; 100 mg/kg, 240 min)	Compound	MIC [1]	MIC [2]	MIC [3]	MIC [4]	MIC [5]	MIC [6]	Hydrolysis of 4-position ester after absorption in blood [7]
				CC1=C(C(=O)O)N2C(=O)[C@@H](NC(=O)[C@H](N)c3ccccc3)[C@H]2SC1 [Cephalexin, reference compound]	6.25 µg/mL (≈ 18 µM)	12.5 µg/mL (≈ 36 µM)	12.5 µg/mL (≈ 36 µM)	12.5 µg/mL (≈ 36 µM)	12.5 µg/mL (≈ 36 µM)		
				Cc1nnc(SCC2=C(C(=O)O)N3C(=O)[C@@H](NC(=O)Cc4csc(=N)[nH]4)[C@H]3SC2)s1 [Compound (A)]	0.39 µg/mL (≈ 0.805 µM)	0.39 µg/mL (≈ 0.805 µM)	0.78 µg/mL (≈ 1.61 µM)	1.56 µg/mL (≈ 3.22 µM)	0.78 µg/mL (≈ 1.61 µM)	0.39 µg/mL (≈ 0.805 µM)	
31.8 meg/ml	29.3 meg/ml	22.0 meg/ml	8.7 meg/ml	Cc1nnc(SCC2=C(C(=O)OCOC(=O)C(C)(C)C)N3C(=O)[C@@H](NC(=O)Cc4csc(=N)[nH]4)[C@H]3SC2)s1 [Example 1, 7β-(2-imino-4-thiazolin-4-yl)acetamido-3-(5-methyl-1,3,4-thiadizolyl-2-yl)thiomethyl-3-cephem-4-pivaloyloxymethyl carboxylate hydrochloric acid salt]							hydrolyzed at 4-position carboxylic acid ester after being absorbed in blood
32.4 meg/ml	28.3 meg/ml	21.0 meg/ml		CCOC(=O)OC(C)OC(=O)C1=C(CSc2nnc(C)s2)CS[C@@H]2[C@H](NC(=O)Cc3csc(=N)[nH]3)C(=O)N12 (some centres unmarked) [Example 2]							hydrolyzed at 4-position carboxylic acid ester after being absorbed in blood
